The results in this text go back to publication PMC11355573, “A New Renieramycin T Right-Half Analog as a Small Molecule Degrader of STAT3” (Marine Drugs, 2024).

Broadly, the IC50 is the concentration needed to halve the response being measured.

The test system of assay [1] is EMT markers (ZO1, Slug, Snail, N-cadherin, Vimentin) in H460 cells. Kind of assay: Western blot of EMT markers. Type of assay: cell-based, human. An excerpt:
EMT is a biological process that is associated with cancer progression and the spread of cancer cells to other parts of the body. This mechanism facilitates the motility of cancer cells, enhances anoikis resistance, and contributes to poor prognosis due to its high metastatic potential. Given the critical role of EMT in the metastasis processes, we firstly investigated EMT markers. Therefore, to validate that DH_31 inhibits metastasis, H460 cells were selected to elucidate the mechanism because of their enhanced migration and invasion behavior [36]. H460 cells were exposed to the non-toxic concentration range of 0–2.5 µM of DH_31 for 24 h. Subsequently, the evaluation of EMT expression levels was carried out through the application of immunofluorescence assay and Western blotting. We further investigated key hallmarks of EMT, specifically the reduction in the expression levels of epithelial marker (ZO1) and the increase in the expression levels of mesenchymal markers (Slug, Snail, ZEB1, N-cadherin, and Vimentin). […] The expressions of Snail, N-cadherin, and Vimentin were reduced in a concentration-dependent manner. […] Furthermore, the results from the Western blot analysis confirmed the findings from immunofluorescence staining (Figure 3C). […] The protein alterations in response to DH_31 were clarified.
Western blot analysis was performed to detect and quantify specific proteins in a sample. H460 cells (4.0 × 10^5 cells per well) were seeded in 6 well plates. Following overnight incubation, the cells were treated with different concentrations of DH_31 (0–2.5 μM) for 24 h at 37 °C. After treatment, the cell lysates were isolated using a 1 × RIPA buffer containing a protease inhibitor cocktail for 45 min at 4 °C. The protein content was determined using the BCA protein assay kit. For the Western blot assay, an equal amount of the denatured proteins from cell lysates was separated by electrophoresis on 10 or 12% SDS-PAGE and transferred to 0.2 µm polyvinylidene difluoride (PVDF) membranes (Bio-Rad Laboratories, Hercules, CA, USA). After the membranes were blocked with 5% skim milk, they were then incubated overnight with specific primary antibodies at 4 °C. Subsequently, the membranes were incubated with HRP-conjugated secondary antibodies for 1 h at room temperature. Protein bands were visualized using SuperSignal^TM West Pico PLUS Chemiluminescent Substrate. The protein intensity was analyzed using ImageJ™ software (Image J 1.52a, Rasband, W., National Institutes of Health, Bethesda, MD, USA).

Assay [2] has as its system BEAS-2B cells. Kind of assay: MTT assay in non-tumorigenic bronchial epithelial cells (selectivity). The settings on record: Homo sapiens, 24 h, read-out: BEAS-2B IC50 ± SD. It is filed as cell-based. Here is the method:
NSCLCs H292 and H460 were treated with various concentrations of derivatives of the RT right-half analog for 24 h. […] However, the IC50 values for DH_17, DH_20, DH_23, and DH_26 in H460 cells were greater than 100 μM. TM-(−)-18 was identified as a potent compound in a previous study. The structure of TM-(−)-18 was present in Figure 1A. […] To assess the selectivity of DH_28, DH_30, DH_31, and TM-(−)-18 in lung cancer cells, non-tumorigenic epithelial cell lines derived from human bronchial epithelial cells (BEAS-2B) were treated with DH_28, DH_30, DH_31, and TM-(−)-18 at various concentrations for 24 h.
Figure 2 The effect of RT right-half analogs on cytotoxicity in NSCLC and human normal lung epithelial (BEAS-2B) cell lines and apoptotic cell death in NSCLC cells. (A) NSCLC H292 and H460 cells were treated with derivatives of RT right-half analogs for 24 h and analyzed using MTT assay to assess cytotoxicity. (B) IC50 values for H292 and H460 cell lines were calculated. (C) BEAS-2B cells were treated with DH_28, DH_30, DH_31, and TM-(−)-18 for 24 h. The cytotoxic effects were evaluated using an MTT assay, and the IC50 values for BEAS-2B cells were determined. (D) H292 and H460 cells were seeded and treated with 0–10 μM of DH_28, DH_30, and DH_31 for 24 h. Hoechst 33342 and PI were used to stain the cell nuclei. Images were obtained under a fluorescence microscope. (E) The percentages of cell death were calculated based on the stained images in H292 and H460 cells. […] TEXT PRINTED IN THE PICTURE: (B) DH_17: IC50 ± SD (μM) H292: 20.50 ± 3.69; IC50 ± SD (μM) H460: > 100 | (B) DH_20: IC50 ± SD (μM) H292: 21.46 ± 3.77; IC50 ± SD (μM) H460: > 100 | (B) DH_23: IC50 ± SD (μM) H292: 17.50 ± 3.08; IC50 ± SD (μM) H460: > 100 | (B) DH_26: IC50 ± SD (μM) H292: 7.18 ± 2.39; IC50 ± SD (μM) H460: > 100 | (B) DH_28: IC50 ± SD (μM) H292: 9.56 ± 1.87; IC50 ± SD (μM) H460: 11.48 ± 1.87 | (B) DH_30: IC50 ± SD (μM) H292: 7.80 ± 2.30; IC50 ± SD (μM) H460: 4.51 ± 0.78 | (B) DH_31: IC50 ± SD (μM) H292: 5.54 ± 1.04; IC50 ± SD (μM) H460: 2.90 ± 0.58 | (B) TM-(–)-18: IC50 ± SD (μM) H292: > 100; IC50 ± SD (μM) H460: 7.89 ± 1.27 | (C) DH_28: BEAS-2B IC50 ± SD (μM): 16.46 ± 2.11 | (C) DH_30: BEAS-2B IC50 ± SD (μM): 5.50 ± 1.70 | (C) DH_31: BEAS-2B IC50 ± SD (μM): 6.51 ± 1.40 | (C) TM-(–)-18: BEAS-2B IC50 ± SD (μM): 7.25 ± 1.25 DOUBTS OF THE COPYIST ABOUT THIS PICTURE: Panel C, DH_28, IC50: small print, 16.46 ± 2.11 is the best reading; 6 could be 8 / Panel C, DH_30, IC50: small print, 5.50 ± 1.70 is the best reading; 5 could be 6 / Panel C, DH_31, IC50: small print, 6.51 ± 1.40 is the best reading; 6 could be 8 or 5 / Panel C, TM-(–)-18, IC50: small print, 7.25 ± 1.25 is the best reading

On to `COc1c(C)cc2c(c1O)[C@@H]1CN(Cc3ccc4ccccc4c3)[C@@H](C#N)[C@H](C2)N1C` [DH_31, (1R,4R,5S)-10-hydroxy-9-methoxy-8,11-dimethyl-3-(naphthalen-2-ylmethyl)-1,2,3,4,5,6-hexahydro-1,5-epiminobenzo[d]azocine-4-carbonitrile], for which, in assay [1] (H460, 1 µM (p < 0.05) and 2.5 µM (p < 0.01), 24 h), the “Snail expression (Western blot)” value is reported as “reduced”. Also, in assay [1] (H460, 2.5 µM, 24 h (p < 0.05)), the “N-cadherin expression (Western blot)” value is given as “reductions”, the “Slug expression (Western blot)” value is “reductions” and the “Vimentin expression (Western blot)” value is “reductions”. Moreover, in assay [2], the half-maximal inhibitory concentration (IC50) turned out to be 6.51 ± 1.4 µM.
